Patent publication US20080009551A1, “Methods and Compositions for Identifying Modulators of G Protein-Coupled Receptors” (Arena Pharmaceuticals, Inc., priority 2003, published 2008)

What was measured:
niacin receptor = assay: Upregulation of GURC-modified niacin receptor (luciferase assay); type: cell-based; details: FIG. 15A
β2 adrenergic receptor = assay: Upregulation of GURC-modified β2 adrenergic receptor (luciferase assay); type: cell-based; details: FIG. 15B
histamine receptor H3 = details: FIG. 14
Chain of histamine receptor H3 (as listed by the source): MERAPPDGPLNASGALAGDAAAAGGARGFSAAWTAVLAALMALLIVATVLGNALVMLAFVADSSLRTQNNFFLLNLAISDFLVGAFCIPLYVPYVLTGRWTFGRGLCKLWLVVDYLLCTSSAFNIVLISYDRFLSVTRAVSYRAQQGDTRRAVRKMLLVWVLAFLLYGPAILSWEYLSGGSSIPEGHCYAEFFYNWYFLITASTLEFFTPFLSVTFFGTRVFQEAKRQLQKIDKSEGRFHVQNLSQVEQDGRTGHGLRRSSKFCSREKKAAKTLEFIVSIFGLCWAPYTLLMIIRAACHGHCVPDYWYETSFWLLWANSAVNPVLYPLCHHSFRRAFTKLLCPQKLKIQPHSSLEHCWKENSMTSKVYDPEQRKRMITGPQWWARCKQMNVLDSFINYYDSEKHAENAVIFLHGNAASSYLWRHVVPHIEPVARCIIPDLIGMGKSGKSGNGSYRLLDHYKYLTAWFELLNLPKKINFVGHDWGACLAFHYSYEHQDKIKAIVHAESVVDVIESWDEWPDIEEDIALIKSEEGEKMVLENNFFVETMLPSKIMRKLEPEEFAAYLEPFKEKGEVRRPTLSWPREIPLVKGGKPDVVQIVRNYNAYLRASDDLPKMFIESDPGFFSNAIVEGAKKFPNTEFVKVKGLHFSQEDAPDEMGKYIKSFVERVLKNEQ

| Compound | upregulation of the niacin receptor (niacin receptor) | upregulation of the β2 adrenergic receptor (β2 adrenergic receptor) | potency at histamine receptor H3 (histamine receptor H3) |
| --- | --- | --- | --- |
| Nc1ncnc2c1ncn2[C@@H]1O[C@H](COP(=O)(O)OP(=O)(O)OC[C@@H]2O[C@H]([n+]3cccc(C(=O)[O-])c3)[C@@H](O)[C@H]2O)[C@@H](O)[C@H]1OP(=O)(O)O [NAADP-β] | dose-dependent upregulation | lack of dose-dependent upregulation |  |
| COC(=O)c1cccnc1 [methyl nicotinate] | dose-dependent upregulation | lack of dose-dependent upregulation |  |
| Methyl histamine |  |  | low potency |
